The text below walks through data of patent publication US9540380B2, “Imidazotriazinone compounds” (Ironwood Pharmaceuticals, Inc., priority 2010, dated 2017).

Assay [1] deals with T1, PDE1A (Homo sapiens, UniProt P54750).
T1 construct: purchased Reaction Biology Corporation, Malvern, Pa
Description: Phosphodiesterase Enzyme Screening Assay, PDE1A (selectivity versus PDE9A2). The assay is classed as biochemical. To be noted: ratio of IC50 values; value greater than 1 indicates greater selectivity for PDE9A2. An excerpt:
(§1) Compounds of the invention were screened against PDE1A, PDE1B, PDE2A, PDE3A, PDE3B, PDE4A1A, PDE4B1, PDE4D3, PDE5A1, PDE6C, PDE7A, PDE8A1, PDE9A2, PDE10A2 AND PDE11A isoforms of the phosphodiesterase enzyme to determine activity and overall selectivity through comparative analysis. The assay generally consists of testing the compounds of the invention at 10 concentrations. Where 8-methoxy-IBMX and Zaprinast were used as reference inhibitors.
(§2) The phosphodiesterase enzyme isoforms were obtained from a commercial retailer (Reaction Biology Corporation, Malvern, Pa.) for use in the instant screening assay.
(§3) The analysis was completed using the Caliper LabChip 3000 and a 12-sipper LabChip. LabChip assays are separations-based, meaning that the product and substrate are electrophoretically separated, thereby minimizing interferences and yielding the highest data quality available on any screening platform. Z′ factors for both the EZ Reader and LC3000 enzymatic assays are routinely in the 0.8 to 0.9 range. High Z′ values, few false positives, few false negatives and analytical quality reproducibility are the reasons cited for the increasing reliance on the LabChip assays.
(§4) The off-chip incubation mobility-shift phosphodiesterase assay uses a microfluidic chip to measure the conversion of a fluorescent cyclic AMP substrate to a 5′-AMP product, or a cyclic GMP substrate to a 5′-GMP product. The reaction mixture, from a microtiter plate well, is introduced through a capillary sipper onto the chip, where the fluorescent substrate and product are separated by electrophoresis and detected via laser-induced fluorescence. […] The precision of microfluidics allows researchers to detect subtle interactions between drug candidates and therapeutic targets. The technology is able to detect both strong and weak inhibitors with high accuracy, and routinely identifies drug candidates that conventional techniques miss.
(§5) Reactions were carried out in 100 mM HEPES (pH 7.5), 5 mM MgCl2, 1 mM DTT, 0.003% Brij, 4.0 μM cGMP substrate. The reaction was started by addition of cGMP or cAMP and incubated for 1 hour at R.T. The reaction was terminated by the addition of stop buffer containing 100 mM HEPES (pH 7.5), 15 mM EDTA, 0.015% Brij-35, 5% DMSO. Cyclic AMP/GMP substrate and 5′-AMP/5′-GMP product were separated by charge using electrophoretic mobility shift. Product formed was compared to control wells to determine inhibition or enhancement of enzyme activity.
(§6) One or more reference compounds, depending on phosphodiesterase isoform, selected from 8-methoxy-IBMX, Zaprinast, Trequinsin, Pentoxifyline, Rolipram, and Vinpocetine, Dipyridamole, and BRL-50481 were run alongside client samples to ensure data quality. The resulting IC50 is compared against the historical average and must be within 3-fold of this average.
(§7) Data points were averages of quadruplicate wells and error bars represented the SEM for each point. IC50s were determined using GraphPad Prism Version 5.01 and the log (inhibitor) vs. response variable slope curve fit.

The target of assay [2] is T2, PDE1B (Homo sapiens, UniProt Q01064).
T2 construct: purchased Reaction Biology Corporation, Malvern, Pa
In words: Phosphodiesterase Enzyme Screening Assay, PDE1B (selectivity versus PDE9A2). The following applies: ratio of IC50 values; value greater than 1 indicates greater selectivity for PDE9A2. The format is biochemical.
Description: as §1, §2, §3, §4, §5, §6, §7

The target of assay [3] is T3, PDE9A2 (Homo sapiens, UniProt O76083).
T3 construct: purchased Reaction Biology Corporation, Malvern, Pa
In words: Phosphodiesterase Enzyme Screening Assay, PDE9A2 (Caliper LabChip mobility-shift). The format is biochemical. The following applies: 10 concentrations, 4.0 μM cGMP substrate, 1 hour at R.T.; read-out: Band (PDE9A2 IC50).
Description: as §1, §2, §3, §4, §5, §6, §7

Assay [4] addresses PDE9 (Homo sapiens, UniProt O76083). The following applies: PDE9 affinity for cGMP; cited from earlier work.

SMILES strings stand for the structures. Some results are limits rather than exact numbers.

In general, IC50 refers to the concentration that gives 50% inhibition. For orientation: Km means the concentration of substrate that gives half-maximal velocity.

T1 sequence (P54750 whole entry): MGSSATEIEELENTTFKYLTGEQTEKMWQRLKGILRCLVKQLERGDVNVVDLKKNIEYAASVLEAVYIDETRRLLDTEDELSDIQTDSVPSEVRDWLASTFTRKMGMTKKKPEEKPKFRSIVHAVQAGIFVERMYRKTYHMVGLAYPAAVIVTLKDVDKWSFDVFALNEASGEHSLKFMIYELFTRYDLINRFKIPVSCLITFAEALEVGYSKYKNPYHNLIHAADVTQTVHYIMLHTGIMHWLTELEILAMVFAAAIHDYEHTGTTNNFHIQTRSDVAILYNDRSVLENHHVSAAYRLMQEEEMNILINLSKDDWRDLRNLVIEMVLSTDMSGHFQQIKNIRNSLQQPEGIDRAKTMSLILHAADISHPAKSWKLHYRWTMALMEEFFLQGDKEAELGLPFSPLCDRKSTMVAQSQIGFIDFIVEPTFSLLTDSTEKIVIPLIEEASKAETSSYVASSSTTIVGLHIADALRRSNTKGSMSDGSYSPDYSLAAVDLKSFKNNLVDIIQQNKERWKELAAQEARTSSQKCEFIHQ
T3 sequence (O76083 1-533 isoform O76083-2): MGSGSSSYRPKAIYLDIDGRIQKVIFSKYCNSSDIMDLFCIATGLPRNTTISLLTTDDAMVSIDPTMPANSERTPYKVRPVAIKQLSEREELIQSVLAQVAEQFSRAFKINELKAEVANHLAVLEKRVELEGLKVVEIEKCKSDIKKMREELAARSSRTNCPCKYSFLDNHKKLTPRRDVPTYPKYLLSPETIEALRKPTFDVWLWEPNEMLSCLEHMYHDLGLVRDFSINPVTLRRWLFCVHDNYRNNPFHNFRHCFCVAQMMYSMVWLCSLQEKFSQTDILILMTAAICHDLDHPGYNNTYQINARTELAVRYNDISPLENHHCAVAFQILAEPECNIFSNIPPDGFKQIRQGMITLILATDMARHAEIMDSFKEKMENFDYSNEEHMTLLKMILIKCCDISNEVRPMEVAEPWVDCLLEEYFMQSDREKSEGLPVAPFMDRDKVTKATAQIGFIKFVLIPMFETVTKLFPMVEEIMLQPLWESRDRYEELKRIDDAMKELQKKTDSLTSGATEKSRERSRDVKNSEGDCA
T2 sequence (Q01064 whole entry): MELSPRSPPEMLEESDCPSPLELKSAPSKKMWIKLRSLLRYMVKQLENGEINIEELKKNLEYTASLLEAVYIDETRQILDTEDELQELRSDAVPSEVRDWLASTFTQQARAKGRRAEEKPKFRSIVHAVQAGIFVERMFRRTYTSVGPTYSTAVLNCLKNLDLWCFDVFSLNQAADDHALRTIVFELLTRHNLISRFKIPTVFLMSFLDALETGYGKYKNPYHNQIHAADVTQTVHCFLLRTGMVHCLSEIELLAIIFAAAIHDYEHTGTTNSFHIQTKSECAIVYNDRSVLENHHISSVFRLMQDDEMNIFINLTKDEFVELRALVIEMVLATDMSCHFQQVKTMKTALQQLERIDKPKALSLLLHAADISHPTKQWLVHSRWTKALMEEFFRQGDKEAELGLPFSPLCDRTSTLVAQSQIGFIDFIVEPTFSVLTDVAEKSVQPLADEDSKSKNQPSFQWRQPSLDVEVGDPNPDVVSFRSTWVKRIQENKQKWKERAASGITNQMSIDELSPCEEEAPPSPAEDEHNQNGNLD
Chain of PDE9 (O76083 whole entry): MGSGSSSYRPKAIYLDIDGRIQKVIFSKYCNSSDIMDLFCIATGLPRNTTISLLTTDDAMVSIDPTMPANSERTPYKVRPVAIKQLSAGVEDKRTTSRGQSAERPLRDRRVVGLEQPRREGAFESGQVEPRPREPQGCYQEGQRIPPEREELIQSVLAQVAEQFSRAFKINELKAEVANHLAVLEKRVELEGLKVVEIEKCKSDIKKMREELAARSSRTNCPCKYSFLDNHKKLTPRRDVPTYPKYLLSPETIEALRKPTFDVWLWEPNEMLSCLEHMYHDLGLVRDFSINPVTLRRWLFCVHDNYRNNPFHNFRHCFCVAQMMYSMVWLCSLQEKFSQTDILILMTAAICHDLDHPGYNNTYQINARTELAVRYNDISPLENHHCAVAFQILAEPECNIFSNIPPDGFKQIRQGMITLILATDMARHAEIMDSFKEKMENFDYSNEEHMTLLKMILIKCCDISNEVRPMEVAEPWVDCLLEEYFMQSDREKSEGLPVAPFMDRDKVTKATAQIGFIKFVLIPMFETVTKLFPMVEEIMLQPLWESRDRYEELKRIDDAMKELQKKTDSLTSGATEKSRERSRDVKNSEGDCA

With `C[C@@H]1CN(Cc2cn3ncccc3n2)C[C@H]1c1nn2c(C3CCOCC3)ncc2c(=O)[nH]1` (single isomer, unassigned) [(+)-2-((3,4-trans)-1-(imidazo[1,2-b]pyridazin-2-ylmethyl)-4-] [(+)-2-((3,4-trans)-1-(imidazo[1,2-b]pyridazin-2-ylmethyl)-4-methylpyrrolidin-3-yl)-7-(tetrahydro-2H-pyran-4-yl)imidazo[5,1-f][1,2,4]triazin-4(3H)-one], the “PDE1A selectivity (versus PDE9A2)” value in assay [1] was 1005. In assay [2], the “PDE1B selectivity (versus PDE9A2)” value is 1413.

Consider `C[C@@H]1CN(Cc2ccc3ccccc3n2)C[C@H]1c1nn2c(C3CCOCC3)ncc2c(=O)[nH]1` (single isomer, unassigned) [(+)-2-((3,4-trans)-4-methyl-1-(quinolin-2-ylmethyl)pyrrolidi] [(+)-2-((3,4-trans)-4-methyl-1-(quinolin-2-ylmethyl)pyrrolidin-3-yl)-7-(tetrahydro-2H-pyran-4-yl)imidazo[5,1-f][1,2,4]triazin-4(3H)-one], for which the “PDE1A selectivity (versus PDE9A2)” value in assay [1] amounted to 621. Besides, the “PDE1B selectivity (versus PDE9A2)” value in assay [2] amounted to 1400.

Turning to `C[C@@H]1CN(Cc2ccccc2C#N)C[C@H]1c1nn2c(C3CCOCC3)ncc2c(=O)[nH]1` (single isomer, unassigned) [(+)-2-(((3,4-trans)-3-methyl-4-(4-oxo-7-(tetrahydro-2H-pyran-4-yl)-3,4-dihydroimidazo[5,1-f][1,2,4]triazin-2-yl)pyrrolidin-1-yl)methyl)benzonitrile], the “PDE1A selectivity (versus PDE9A2)” value in assay [1] is reported as 241. Moreover, the “PDE1B selectivity (versus PDE9A2)” value in assay [2] is recorded as 220. In addition, the 50% inhibitory concentration (IC50) in assay [3] is under 1 µM.

Take `C[C@@H]1CN(Cc2cccc(C#N)c2)C[C@H]1c1nn2c(C3CCOCC3)ncc2c(=O)[nH]1` (single isomer, unassigned) [(+)-3-(((3,4-trans)-3-methyl-4-(4-oxo-7-(tetrahydro-2H-pyran-4-yl)-3,4-dihydroimidazo[5,1-f][1,2,4]triazin-2-yl)pyrrolidin-1-yl)methyl)benzonitrile]: the “PDE1A selectivity (versus PDE9A2)” value in assay [1] is listed as 942. Moreover, in assay [2], the “PDE1B selectivity (versus PDE9A2)” value was found to be 343. The IC50 in assay [3] is under 1 µM.

On to `C[C@@H]1CN(Cc2ccc(C#N)cc2)C[C@H]1c1nn2c(C3CCOCC3)ncc2c(=O)[nH]1` (single isomer, unassigned) [(−)-4-(((3,4-trans)-3-methyl-4-(4-oxo-7-(tetrahydro-2H-pyran-4-yl)-3,4-dihydroimidazo[5,1-f][1,2,4]triazin-2-yl)pyrrolidin-1-yl)methyl)benzonitrile], for which, in assay [1], the “PDE1A selectivity (versus PDE9A2)” value came to 640. Moreover, the “PDE1B selectivity (versus PDE9A2)” value in assay [2] was determined as 1445. Also, the IC50 in assay [3] was under 1 µM.

Regarding `Nc1nc2c(ncn2[C@@H]2O[C@@H]3COP(=O)(O)O[C@H]3[C@H]2O)c(=O)[nH]1` [cGMP, cyclic guanosine monophosphate], the Km in assay [4] was about 0.17 µM.
